For test [1], the target named is T1, Glucocorticoid receptor (Homo sapiens, UniProt P04150).
T1 sequence (P04150 whole entry): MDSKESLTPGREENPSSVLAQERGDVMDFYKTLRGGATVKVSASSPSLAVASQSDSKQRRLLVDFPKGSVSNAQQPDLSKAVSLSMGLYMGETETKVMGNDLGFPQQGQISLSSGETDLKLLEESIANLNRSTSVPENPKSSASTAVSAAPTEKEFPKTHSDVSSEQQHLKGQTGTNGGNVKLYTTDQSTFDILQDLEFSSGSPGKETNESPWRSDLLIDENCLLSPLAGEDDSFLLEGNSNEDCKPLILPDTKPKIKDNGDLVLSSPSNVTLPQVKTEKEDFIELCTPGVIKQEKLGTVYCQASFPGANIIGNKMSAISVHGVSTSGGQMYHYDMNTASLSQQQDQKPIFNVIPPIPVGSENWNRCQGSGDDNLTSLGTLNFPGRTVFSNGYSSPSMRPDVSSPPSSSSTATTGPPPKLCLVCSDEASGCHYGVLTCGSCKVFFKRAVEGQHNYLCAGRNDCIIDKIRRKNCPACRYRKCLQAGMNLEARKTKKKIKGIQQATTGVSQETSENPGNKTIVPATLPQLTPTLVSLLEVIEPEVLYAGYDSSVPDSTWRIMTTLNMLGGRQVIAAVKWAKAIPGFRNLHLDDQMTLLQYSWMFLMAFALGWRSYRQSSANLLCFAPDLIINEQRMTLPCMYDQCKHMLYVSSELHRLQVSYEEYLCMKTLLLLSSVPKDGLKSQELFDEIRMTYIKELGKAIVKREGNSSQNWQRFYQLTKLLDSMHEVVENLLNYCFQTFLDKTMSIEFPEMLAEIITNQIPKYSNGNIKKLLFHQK
Description: Displacement of radiolabeled Dexamethasone from GR

The target in test [2] is T1, Glucocorticoid receptor. Format: functional, cell-based, CV-1.
Description: Agonist activity at GR expressed in african green monkey CV1 cells transfected with luciferase gene linked to MMTV promoter assessed as induction of luciferase transactivation activity
Test [3] has as its target T1, Glucocorticoid receptor. It is filed as functional, cell-based, H4IIEC3.
Description: Agonist activity at GR expressed in rat H4IIEC3 cells assessed as induction of PEPCK transactivation by luciferase reporter gene assay
For test [4], the target named is T1, Glucocorticoid receptor. It is filed as cell-based, HepG2.
Description: Transrepression activity at GR expressed in IL-1beta- and TNFalpha-stimulated HepG2 cells assessed as inhibition of NFKB- or AP-1 mediated E-selectin transcription by luciferase reporter gene assay
In test [5] the target is T1, Glucocorticoid receptor. It is filed as cell-based, NHDF.
Description: Transrepression activity at GR expressed in NHDF cells assessed as IL-1beta-mediated IL-6 transcription by ELISA

The values below come from ChEMBL document CHEMBL1681769, “Tetrahydroquinolin-3-yl carbamate glucocorticoid receptor agonists with reduced PEPCK activation” (Bioorg Med Chem Lett, 2011).

Turning to `C[C@H]1c2c(cc(F)c(-c3cccc4cc[nH]c34)c2F)NC(C)(C)[C@@H]1OC(=O)Nc1ccc(N(C)C)cc1`, the Ki on Glucocorticoid receptor [1] is 5.1 nM. Moreover, the results for the EC50 on Glucocorticoid receptor [2] and at Glucocorticoid receptor [3] were 3.5 nM and 361 nM, respectively. In addition, the IC50 was 8.4 nM against Glucocorticoid receptor [4] and 39 nM against Glucocorticoid receptor [5].

In turn, `C[C@H]1c2c(cc(F)c(-c3cccc4cc[nH]c34)c2F)NC(C)(C)[C@@H]1OC(=O)Nc1ccc2c(c1)OCO2` yielded an inhibition constant (Ki) on Glucocorticoid receptor [1] of 12.2 nM. The EC50 at Glucocorticoid receptor [2] worked out at 18 nM; at Glucocorticoid receptor [3] it was 874 nM. The figures for the IC50 against Glucocorticoid receptor [4] and at Glucocorticoid receptor [5] were 8.5 nM and 50 nM, respectively.

`COc1ccc(NC(=O)O[C@@H]2[C@@H](C)c3c(cc(F)c(-c4cccc5cc[nH]c45)c3F)NC2(C)C)cc1Cl` showed a Ki at Glucocorticoid receptor [1] of 11.6 nM. The EC50 on Glucocorticoid receptor [2] amounted to 11 nM; at Glucocorticoid receptor [3], 687 nM. The IC50 came to 7.5 nM on Glucocorticoid receptor [4] and 31 nM against Glucocorticoid receptor [5].

`C[C@H]1c2c(cc(F)c(-c3cccc4cc[nH]c34)c2F)NC(C)(C)[C@@H]1OC(=O)Nc1ccc(Cl)cc1`: on Glucocorticoid receptor [1], the Ki worked out at 70 nM. Moreover, the concentration giving a half-maximal response (EC50) on Glucocorticoid receptor [2] worked out at 178 nM. In addition, the values for the IC50 at Glucocorticoid receptor [4] and on Glucocorticoid receptor [5] were 44 nM and 29 nM, respectively.

At Glucocorticoid receptor [1], `C[C@H]1c2c(cc(F)c(-c3cccc4cc[nH]c34)c2F)NC(C)(C)[C@@H]1OC(=O)N(C)c1ccccc1` returned a Ki of 14.3 nM. The EC50 on Glucocorticoid receptor [2] was over 1000 nM. Also, the IC50 on Glucocorticoid receptor [4] and on Glucocorticoid receptor [5] was over 1000 nM throughout.

As to `C[C@H]1c2c(cc(F)c(-c3cccc4cc[nH]c34)c2F)NC(C)(C)[C@@H]1OC(=O)Nc1ccc(C#N)cc1`, affinity on Glucocorticoid receptor [1] was put at a Ki of 16.1 nM. A half-maximal effect on Glucocorticoid receptor [2] (EC50) was put at 21 nM. The IC50 at Glucocorticoid receptor [4] came to 10 nM; against Glucocorticoid receptor [5], 16 nM.

In turn, `CNC(=O)O[C@@H]1[C@@H](C)c2c(cc(F)c(-c3cccc4c(Cl)c[nH]c34)c2F)NC1(C)C` (racemic) registered a Ki on Glucocorticoid receptor [1] of 2.2 nM. Besides, the figures for the EC50 at Glucocorticoid receptor [2] and at Glucocorticoid receptor [3] were 21 nM and 463 nM, respectively. In addition, the values for the IC50 on Glucocorticoid receptor [4] and at Glucocorticoid receptor [5] were 12 nM and 52 nM, respectively.

`C[C@H]1c2c(cc(F)c(-c3cccc4cc[nH]c34)c2F)NC(C)(C)[C@@H]1OC(=O)N1CCCCC1` (racemic) displayed a Ki on Glucocorticoid receptor [1] of 132 nM. Besides, on Glucocorticoid receptor [2], the EC50 was over 1000 nM. Also, the IC50 against Glucocorticoid receptor [4] was over 1000 nM.

On to `COc1ccc(NC(=O)O[C@@H]2[C@@H](C)c3c(cc(F)c(-c4cccc5c(Cl)c[nH]c45)c3F)NC2(C)C)cc1Cl`, for which, on Glucocorticoid receptor [1], the Ki stood at 6.7 nM. The EC50 was 5.8 nM on Glucocorticoid receptor [2] and 283 nM on Glucocorticoid receptor [3]. Also, the IC50 at Glucocorticoid receptor [4] came to 5.7 nM; on Glucocorticoid receptor [5] it was 12 nM.

`C[C@H]1c2c(cc(F)c(-c3cccc4c(Cl)c[nH]c34)c2F)NC(C)(C)[C@@H]1OC(=O)Nc1ccc(C#N)cc1` returned a Ki on Glucocorticoid receptor [1] of 13.7 nM. The EC50 on Glucocorticoid receptor [2] came to 5.1 nM; at Glucocorticoid receptor [3], 272 nM. In addition, the IC50 was determined as 8.1 nM against Glucocorticoid receptor [4] and 5 nM on Glucocorticoid receptor [5].

As to `C[C@H]1c2c(cc(F)c(-c3cccc4cc[nH]c34)c2F)NC(C)(C)[C@@H]1O` (racemic), on Glucocorticoid receptor [3], a half-maximal effect (EC50) was put at 98 nM.

In the case of `CNC(=O)O[C@@H]1[C@@H](C)c2c(cc(F)c(-c3cccc4cc[nH]c34)c2F)NC1(C)C` (racemic), the affinity at Glucocorticoid receptor [1], expressed as Ki, was 3 nM. Moreover, the EC50 on Glucocorticoid receptor [2] stood at 39 nM; at Glucocorticoid receptor [3], 199 nM. Further, the IC50 against Glucocorticoid receptor [4] was 10 nM; on Glucocorticoid receptor [5], over 1000 nM.

With `C[C@H]1c2c(cc(F)c(-c3cccc4cc[nH]c34)c2F)NC(C)(C)[C@@H]1OC(=O)Nc1ccccc1`, the Ki on Glucocorticoid receptor [1] turned out to be 6.2 nM. Also, the EC50 at Glucocorticoid receptor [2] was 105 nM. In addition, the IC50 against Glucocorticoid receptor [4] is 40 nM; on Glucocorticoid receptor [5] it was over 1000 nM.

`C[C@H]1c2c(cc(F)c(-c3cccc4c(Cl)c[nH]c34)c2F)NC(C)(C)[C@@H]1OC(=O)Nc1ccccc1`: the affinity at Glucocorticoid receptor [1] corresponds to a Ki of 7.6 nM. Moreover, the figures for the EC50 at Glucocorticoid receptor [2] and on Glucocorticoid receptor [3] were 7.6 nM and 379 nM, respectively. Also, the IC50 on Glucocorticoid receptor [4] came out at 9.1 nM; against Glucocorticoid receptor [5] it was 33 nM.

With `COC(=O)c1ccc(NC(=O)O[C@@H]2[C@@H](C)c3c(cc(F)c(-c4cccc5cc[nH]c45)c3F)NC2(C)C)cc1`, on Glucocorticoid receptor [1], the inhibitory constant (Ki) stood at 30 nM. Moreover, the figures for the EC50 at Glucocorticoid receptor [2] and at Glucocorticoid receptor [3] were 15 nM and 267 nM, respectively. The IC50 against Glucocorticoid receptor [4] was determined as 29 nM; against Glucocorticoid receptor [5], 16 nM.
